Experimental data as given in the supplement of paper PMC10307832.

Experiments:
Assay in all cases: relative viability (nuclei count vs DMSO), 5 days (fraction); higher = more cells survive
[1] = compound: Cn1cc(-c2cnn3c(N)c(Br)c([C@@H]4CCCNC4)nc23)cn1 + COc1cccc2cc(-c3nc([C@H]4CC[C@H](C(=O)O)CC4)n4ncnc(N)c34)[nH]c12 [OSI-027] (partner 0.5 µM)
Summary of the method: (§1)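 Lung cancer cell lines in 1536-well plates were dosed by pin tool the day after seeding, either with one drug alone or with a fixed anchor-drug dose plus five library-drug doses (not always all listed) in √10 steps. After 5 days, cells were fixed and their nuclei stained in one step (final 0.05% Triton X-100, 1% formaldehyde, 1 ug/ml Hoechst), then counted on 4× images. Relative viability is the nuclei count in treated wells divided by that in vehicle wells. Values are medians of duplicate plates.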

[2] = compound: Cn1cc(-c2cnn3c(N)c(Br)c([C@@H]4CCCNC4)nc23)cn1 + C[C@@H](Oc1cc(-c2cnn(C3CCNCC3)c2)cnc1N)c1c(Cl)ccc(F)c1Cl [Crizotinib] (partner 1 µM)
Summary of the method: as §1

[3] = compound: Cn1cc(-c2cnn3c(N)c(Br)c([C@@H]4CCCNC4)nc23)cn1 + C[C@]1(O)C[C@@H](c2nc(-c3ccc4ccc(-c5ccccc5)nc4c3)c3c(N)nccn32)C1 [Linsitinib] (partner 1 µM)
Summary of the method: as §1

[4] = compound: Cn1cc(-c2cnn3c(N)c(Br)c([C@@H]4CCCNC4)nc23)cn1 + Cc1cc(Nc2cc(N3CCN(C)CC3)nc(Sc3ccc(NC(=O)C4CC4)cc3)n2)n[nH]1 [Tozasertib] (partner 0.1 µM)
Summary of the method: as §1

Cell Line | relative viability ([1]; first compound 0.05 µM) | relative viability ([1]; first compound 0.1581 µM) | relative viability ([1]; first compound 0.5 µM) | relative viability ([1]; first compound 1.581 µM) | relative viability ([1]; first compound 5 µM) | relative viability ([2]; first compound 0.05 µM) | relative viability ([2]; first compound 0.1581 µM) | relative viability ([2]; first compound 0.5 µM) | relative viability ([2]; first compound 1.581 µM) | relative viability ([2]; first compound 5 µM) | relative viability ([3]; first compound 0.05 µM) | relative viability ([3]; first compound 0.1581 µM) | relative viability ([3]; first compound 0.5 µM) | relative viability ([3]; first compound 1.581 µM) | relative viability ([3]; first compound 5 µM) | relative viability ([4]; first compound 0.05 µM) | relative viability ([4]; first compound 0.1581 µM) | relative viability ([4]; first compound 0.5 µM) | relative viability ([4]; first compound 1.581 µM) | relative viability ([4]; first compound 5 µM)
NCI-H2009 | 0.681 | 0.709 | 0.534 | 0.515 | 0.422 | 1.05 | 1.03 | 1.08 | 0.881 | 0.678 | 1.14 | 1.31 | 1.22 | 1.12 | 1.09 | 0.745 | 0.702 | 0.651 | 0.565 | 0.448
NCI-H1651 | 0.653 | 0.787 | 0.618 | 0.453 | 0.242 | 0.902 | 0.985 | 0.806 | 0.821 | 0.569 | 0.949 | 0.977 | 0.869 | 0.574 | 0.356 | 0.586 | 0.721 | 0.641 | 0.429 | 0.176
LCLC-103H | 0.433 | 0.43 | 0.516 | 0.405 | 0.389 | 1.04 | 1.11 | 1.13 | 1.03 | 1.1 | 0.978 | 1.18 | 1.15 | 1.06 | 0.915 | 0.543 | 0.57 | 0.469 | 0.364 | 0.313
NCI-H1666 | 0.827 | 0.966 | 0.913 | 0.812 | 0.66 | 1.03 | 0.906 | 1.02 | 1 | 0.869 | 0.896 | 0.745 | 0.653 | 0.714 | 0.711 | 0.608 | 0.589 | 0.606 | 0.522 | 0.511
NCI-H1734 | 0.59 | 0.581 | 0.563 | 0.54 | 0.362 | 0.682 | 0.804 | 0.633 | 0.661 | 0.393 | 0.942 | 0.932 | 0.901 | 0.778 | 0.744 | 0.214 | 0.25 | 0.284 | 0.213 | 0.211
EPLC-272H | 0.256 | 0.309 | 0.359 | 0.224 | 0.166 | 0.943 | 1.07 | 1 | 0.945 | 0.826 | 1.26 | 1.18 | 1.24 | 1.25 | 1.12 | 0.252 | 0.249 | 0.25 | 0.247 | 0.226
NCI-H2023 | 0.438 | 0.342 | 0.269 | 0.159 | 0.13 | 0.702 | 0.428 | 0.436 | 0.272 | 0.172 | 0.582 | 0.452 | 0.421 | 0.244 | 0.135 | 0.361 | 0.254 | 0.238 | 0.15 | 0.122
BEN | 0.481 | 0.288 | 0.251 | 0.572 | 0.295 | 0.911 | 0.969 | 0.861 | 0.745 | 0.608 | 1.04 | 0.977 | 0.918 | 0.686 | 0.738 | 0.606 | 0.494 | 0.467 | 0.714 | 0.489
COR-L 105 | 0.632 | 0.818 | 0.688 | 0.587 | 0.487 | 0.739 | 0.722 | 0.713 | 0.535 | 0.462 | 0.898 | 0.719 | 0.89 | 0.878 | 0.645 | 0.31 | 0.4 | 0.293 | 0.312 | 0.321
ABC-1 | 0.518 | 0.58 | 0.382 | 0.39 | 0.264 | 1.16 | 0.935 | 1.06 | 0.563 | 0.316 | 0.801 | 1.01 | 0.781 | 0.716 | 0.288 | 0.159 | 0.156 | 0.219 | 0.127 | 0.136
HCC-15 | 0.781 | 0.739 | 0.682 | 0.566 | 0.533 | 0.926 | 0.98 | 0.877 | 0.722 | 0.652 | 0.98 | 0.997 | 0.824 | 0.838 | 0.829 | 0.401 | 0.392 | 0.386 | 0.256 | 0.212
PC-3 [JPC-3] | 0.717 | 0.918 | 0.804 | 0.702 | 0.847 | 1 | 1.01 | 1.02 | 0.835 | 1.12 | 0.966 | 0.989 | 0.975 | 0.975 | 1.03 | 0.812 | 0.986 | 0.94 | 0.75 | 0.91
NCI-H1993 | 0.603 | 0.551 | 0.389 | 0.55 | 0.54 | 0.76 | 0.878 |  | 0.933 | 0.702 | 0.718 | 0.69 |  | 0.672 | 0.739 | 0.62 | 0.602 | 0.463 | 0.513 | 0.538
NCI-H358 | 0.808 | 0.787 | 0.56 | 0.616 | 0.743 | 0.586 | 0.575 | 0.375 | 0.655 | 0.339 | 0.7 | 0.626 | 0.608 | 0.581 | 0.523 | 0.0994 | 0.103 | 0.0971 | 0.0967 | 0.117
NCI-H1915 | 0.646 | 0.631 | 0.566 | 0.543 | 0.561 | 0.674 | 0.871 | 0.906 | 0.697 | 0.905 | 1.1 | 1.07 | 1.05 | 1.16 | 1.14 | 0.47 | 0.493 | 0.44 | 0.359 | 0.411
RERF-LC-KJ | 0.639 | 0.543 | 0.535 | 0.527 | 0.511 | 0.828 | 0.958 | 0.775 | 0.788 | 0.8 | 0.932 | 0.936 | 0.914 | 0.809 | 0.749 | 0.52 | 0.502 | 0.501 | 0.346 | 0.384
